Measurements: paper PMC5079557, “Expression of Soluble Forms of Yeast Diacylglycerol Acyltransferase 2 That Integrate a Broad Range of Saturated Fatty Acids in Triacylglycerols” (PLoS ONE, 2016)
Values belong to the molecule of their own block, whether it stands above or below them.

Columns and labels:
Dga1pΔ85 [1] = target: T1, Dga1pΔ85 (Yarrowia lipolytica, UniProt Q6C3R2); experiment: fluorescent DGAT assay, HPTLC of NBD-TG; assay type: biochemical
T1 construct: gene YALI0_E32769g; lacks 85 N-terminal residues (incl. putative TM domain) of the 515-residue protein; N-terminal MBP fusion kept, ~90 kDa, pMalc2X, E. coli BL21 (DE3) pLysS; dimer on SEC
T1 sequence (Q6C3R2 entry or part of it, stated change not applied): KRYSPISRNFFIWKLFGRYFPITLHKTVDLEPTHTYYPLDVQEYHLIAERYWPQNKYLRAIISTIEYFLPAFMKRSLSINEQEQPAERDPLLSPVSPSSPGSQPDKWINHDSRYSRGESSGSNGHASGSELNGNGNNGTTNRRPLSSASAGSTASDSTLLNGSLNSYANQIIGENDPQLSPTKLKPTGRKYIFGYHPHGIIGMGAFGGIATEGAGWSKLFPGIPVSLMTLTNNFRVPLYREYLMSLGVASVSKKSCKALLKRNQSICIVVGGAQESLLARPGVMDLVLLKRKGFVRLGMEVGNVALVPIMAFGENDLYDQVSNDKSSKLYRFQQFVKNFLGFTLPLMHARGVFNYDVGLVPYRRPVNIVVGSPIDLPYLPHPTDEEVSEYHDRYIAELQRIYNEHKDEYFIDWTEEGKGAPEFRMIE

Dga1pΔ19 [2] = target: T2, Dga1pΔ19 (Yarrowia lipolytica, UniProt Q6C3R2); experiment: fluorescent DGAT assay, HPTLC of NBD-TG; assay type: biochemical; settings: 1 mM niacin; 100 μM C18:0-CoA, 100 μM NBD-DG, 20 mM MgCl2, Hepes pH 7.6, 31°C; noncompetitive (per cited literature)
T2 construct: gene YALI0_E32769g; lacks 19 N-terminal residues of the printed 515-residue protein; N-terminal MBP fusion kept, ~99 kDa, pMalc2X, E. coli BL21 (DE3) pLysS; dimer on SEC
T2 sequence (Q6C3R2 entry or part of it, stated change not applied): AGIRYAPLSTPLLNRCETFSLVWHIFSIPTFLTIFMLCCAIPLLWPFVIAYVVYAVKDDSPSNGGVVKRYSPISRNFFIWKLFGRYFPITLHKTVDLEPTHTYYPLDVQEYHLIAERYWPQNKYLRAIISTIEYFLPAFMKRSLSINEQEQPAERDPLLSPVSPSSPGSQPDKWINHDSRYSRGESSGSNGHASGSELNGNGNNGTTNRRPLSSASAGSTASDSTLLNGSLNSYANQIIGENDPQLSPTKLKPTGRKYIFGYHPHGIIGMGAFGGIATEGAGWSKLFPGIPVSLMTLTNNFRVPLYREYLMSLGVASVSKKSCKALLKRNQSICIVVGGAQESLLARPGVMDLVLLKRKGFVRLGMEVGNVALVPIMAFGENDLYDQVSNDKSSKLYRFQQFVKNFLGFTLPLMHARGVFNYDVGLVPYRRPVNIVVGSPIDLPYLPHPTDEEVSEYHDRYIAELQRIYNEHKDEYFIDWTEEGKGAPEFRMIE

Dga1pΔ85 [3] = target: T1, Dga1pΔ85; experiment: fluorescent DGAT assay, HPTLC of NBD-TG; assay type: biochemical; settings: 1 mM niacin; 100 μM C18:0-CoA, 100 μM NBD-DG, 20 mM MgCl2, Hepes pH 7.6, 31°C; noncompetitive (per cited literature)
Dga1pΔ19 [4] = target: T2, Dga1pΔ19; experiment: fluorescent DGAT assay, HPTLC of NBD-TG; assay type: biochemical; settings: acyl donor; 100 μM NBD-DG, 20 mM MgCl2, Hepes pH 7.6, 0.01% tween 20, 31°C
[5] = target: MBP-Dga1pΔ19 fusion protein (Yarrowia lipolytica); experiment: SEC; Hiload 16/60 Superdex 200 column, 4°C; amylose-purified fractions incubated overnight with lysis buffer (50 mM Tris-HCl pH 7.5, 150 mM NaCl, 5% glycerol, 1 mM EDTA, 1 mM TCEP) with 0.5% N-lauroyl sarcosine before the column; major peak taken as a dimer
[6] = target: MBP-Dga1pΔ85 construct (Yarrowia lipolytica); experiment: as above

Molecule: CCCCCCCCCC(=O)O[C@@H](CO)COC(=O)CCCCCCCCCNc1ccc([N+](=O)[O-])c2nonc12 [NBD-DG]
fluorescent DGAT assay, HPTLC of NBD-TG (Dga1pΔ85 [1]; acyl acceptor, labelled compound, 100 μM with C18:0-CoA, 20 mM MgCl2, Hepes pH 7.6, 31°C): both recombinant enzymes harbored increasing DGAT activities in the presence of various C18:0-CoA concentrations

Molecule: O=C(O)c1cccnc1 [niacin]
% decrease of TG production at 1 mM (Dga1pΔ19 [2]): 70%
% decrease of TG production at 1 mM (Dga1pΔ85 [3]): 99.5%

Molecule: CCCCCCCCCCCCCCCCCC(=O)SCCNC(=O)CCNC(=O)[C@H](O)C(C)(C)COP(=O)(O)OP(=O)(O)OC[C@H]1O[C@@H](n2cnc3c(N)ncnc32)[C@H](O)[C@@H]1OP(=O)(O)O [stearoyl-CoA]
fluorescent DGAT assay, HPTLC of NBD-TG (Dga1pΔ19 [4]): C18:0-CoA was an efficient acyl donor for both enzyme versions
fluorescent DGAT assay, HPTLC of NBD-TG (Dga1pΔ85 [1]; acyl donor, 100 μM NBD-DG, 20 mM MgCl2, Hepes pH 7.6, 0.01% tween 20, 31°C): C18:0-CoA was an efficient acyl donor for both enzyme versions

stoichiometry N [5]: 2
Molecule: MBP-Dga1pΔ19 fusion protein (domain or fragment)

stoichiometry N [6]: 2
Molecule: MBP-Dga1pΔ85 construct (domain or fragment)
